In patent publication US8871962B2, “Method for producing sanshool” (Tsumura & Co., priority 2010, dated 2014):

Assay: Stability test of sample solutions under exposure to fluorescent light (HPLC peak area)
Format: physicochemical
Conditions: acetonitrile sample solution (HαS 0.26 mg/mL, compound 5 0.49 mg/mL), room temperature, 24 hours under fluorescent light
Experimental: (HPLC Analysis Conditions)
Column: TSK-GEL 80TS (φ4.6 mm×150 mm) (Tosoh, Japan); column temperature: 40° C.; flow rate: 1.0 mL/min; measurement wavelength: 200 to 400 nm; mobile phase: Liquid A acetonitrile, Liquid B 0.1% Na2S2O3 aqueous solution (Liquid A: 40%, Liquid B: 60%); and measurement mode: isocratic mode.
HαS (27.6 mg) and the compound 5 (50.4 mg) were diluted to 100 mL with anhydrous acetonitrile (HPLC grade) to prepare 0.26 mg/mL and 0.49 mg/mL sample solutions. The sample solutions, dispensed in 50 mL aliquots, were allowed to stand at room temperature for 24 hours under exposure to fluorescent light. Quantitative analysis was performed under the above HPLC analysis conditions to measure peak area values of the HαS and the diene iron complex compound (compound 5).

peak area value (content) relative to initial level after light exposure	Compound
approximately 80%	tricarbonyl[(8,9,10,11-η)-(2E,6Z,8E,10E)-N-(2-hydroxy-2-methylpropyl)dodeca-2,6,8,10-tetraenamide]iron [compound 5]
approximately 10%	C/C=C/C=C/C=C\CC/C=C/C(=O)NCC(C)(C)O [HαS, (2E,6Z,8E,10E)-N-(2-hydroxy-2-methylpropyl)dodeca-2,6,8,10-tetraenamide]
